In the assay the test system is anesthetized dog. As to the kind of experiment: Effect on the increase in intravesical pressure induced by carbachol in anesthetized dog. The class given is in vivo. As to conditions: 0.32 mg/kg intra-duodenal, 30 minutes before carbachol (1.8 μg/kg); female Beagle dogs under halothane anesthesia; N = 2; Control 9.3. The procedure: Effect on the increase in intravesical pressure induced by carbachol in anesthetized dog
Female Beagle dogs weighing 8.0-15.0 kg were fasted for 24 hours and maintained under halothane anesthesia. A 12F Foley catheter was lubricated with water soluble jelly, inserted into the urethral orifice and advanced approximately 10 cm until the balloon tip was placed well inside the bladder. The balloon was then inflated with 5 ml of room air and catheter slowly withdrawn just part the first resistance that is felt at the bladder neck. Urine was completely drained out thought the catheter, and 30 ml of biological saline was infused. The catheter was connected to pressure transducer, and intravesical pressure was continuously recorded. The test compound was injected by intra-duodenal route at 30 minutes before the administration of carbachol (1.8 μg/kg).

Take `COc1ccc2c(Oc3ccc(C[C@@H](CO)NC[C@H](O)COc4ccccc4)cc3)ccnc2c1` [Example 78, 2(S)-2-[(2S)-2-hydroxy-3-(phenoxy)propylamino]-3-[4-(7-methoxyquinolin-4-yloxy)phenyl]propan-1-ol]: the “Increase in intravesical pressure” value came to 5.5 mmHg.

The record behind these values is patent publication US20020143034A1, “Aminoalcohol derivatives and their use as beta 3 adrenergic agonists” (Fujisawa Pharmaceutical Co. Ltd., priority 1998, published 2002).
